ChEMBL document CHEMBL1201862, “PubChem BioAssay data set” (2004)
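Interpolation was linear, between the two tested concentrations surrounding the appropriate level; five concentrations were tested over 48 hours in 96-well plates. Here, GI50 denotes the concentration required for 50% inhibition of growth.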 Active and inactive are the calls of the source. Cut-off read from the data, not from the text of the source: active = GI50 up to about 1.1 µM and inactive = higher.

Tests used:
Assay in all cases: growth of human tumour cells (NCI), 48 h
[1] = system: HL-60
[2] = system: HCT-15
[3] = system: HCT-116
[4] = system: DLD-1
[5] = system: UO-31
[6] = system: M14
[7] = system: CCRF-CEM
[8] = system: M19-MEL
[9] = system: KM-20L2
[10] = system: SK-MEL-5
[11] = system: COLO 205
[12] = system: 786-0
[13] = system: NCI-H23
[14] = system: LXFL 529
[15] = system: LOX IMVI
[16] = system: A549
[17] = system: TK-10
[18] = system: EKVX
[19] = system: SW-620
[20] = system: HT-29
[21] = system: K562
[22] = system: HOP-62
[23] = system: NCI-H460
[24] = system: RXF 393
[25] = system: SK-OV-3
[26] = system: SF-539
[27] = system: SK-MEL-28
[28] = system: RPMI-8226
[29] = system: SF-295
[30] = system: DMS-273
[31] = system: RXF 631
[32] = system: NCI-H522
[33] = system: U-251
[34] = system: HOP-92
[35] = system: SN12C
[36] = system: DMS-114
[37] = system: CAKI-1
[38] = system: MOLT-4
[39] = system: SF-268
[40] = system: SNB-19
[41] = system: OVCAR-8
[42] = system: XF498
[43] = system: HOP-18
[44] = system: IGROV-1
[45] = system: ACHN
[46] = system: UACC-62
[47] = system: OVCAR-4
[48] = system: NCI-H226
[49] = system: A498
[50] = system: KM12
[51] = system: SNB-75
[52] = system: UACC-257
[53] = system: Malme-3M
[54] = system: SK-MEL-2
[55] = system: OVCAR-5
[56] = system: OVCAR-3

Q: `Cn1nc(-c2ccccc2)c(C(=O)/C=C/c2ccc(Cl)cc2)c(N2CCCC2)c1=O` was tested. Which GI50 [1] did it give?
A: 1.92 µM (inactive)

Q: What about the GI50 [2] of the same compound?
A: 3.75 µM

Q: What about the GI50 [3] of the same compound?
A: 2.56 µM (inactive)

Q: And the GI50 [4]?
A: 2.69 µM (inactive)

Q: And the GI50 [5]?
A: 8.51 µM (inactive)

Q: What about the GI50 [6] of the same compound?
A: 5.33 µM (inactive)

Q: And the GI50 [7]?
A: 2.46 µM (inactive)

Q: And the GI50 [8]?
A: 7.24 µM (inactive)

Q: What about the GI50 [9] of the same compound?
A: 3.78 µM (inactive)

Q: What about the GI50 [10] of the same compound?
A: 5.46 µM (inactive)

Q: What about the GI50 [11] of the same compound?
A: 2.11 µM (inactive)

Q: What about the GI50 [12] of the same compound?
A: 3.13 µM (inactive)

Q: And the GI50 [13]?
A: 2.89 µM (inactive)

Q: And the GI50 [14]?
A: 3.47 µM (inactive)

Q: What about the GI50 [15] of the same compound?
A: 3.8 µM (inactive)

Q: What about the GI50 [16] of the same compound?
A: 4.36 µM (inactive)

Q: What about the GI50 [17] of the same compound?
A: 11.6 µM (inactive)

Q: What about the GI50 [18] of the same compound?
A: 11.7 µM (inactive)

Q: And the GI50 [19]?
A: 4.02 µM (inactive)

Q: What about the GI50 [20] of the same compound?
A: 2.21 µM (inactive)

Q: And the GI50 [21]?
A: 2.66 µM (inactive)

Q: What about the GI50 [22] of the same compound?
A: 2.23 µM (inactive)

Q: What about the GI50 [23] of the same compound?
A: 3.86 µM (inactive)

Q: What about the GI50 [24] of the same compound?
A: 2.63 µM (inactive)

Q: What about the GI50 [25] of the same compound?
A: 4.99 µM (inactive)

Q: What about the GI50 [26] of the same compound?
A: 3.55 µM (inactive)

Q: What about the GI50 [27] of the same compound?
A: 3.76 µM (inactive)

Q: What about the GI50 [28] of the same compound?
A: 2.7 µM (inactive)

Q: And the GI50 [29]?
A: 0.632 µM (active)

Q: What about the GI50 [30] of the same compound?
A: 3.62 µM (inactive)

Q: What about the GI50 [31] of the same compound?
A: 6.12 µM (inactive)

Q: What about the GI50 [32] of the same compound?
A: 2.07 µM (inactive)

Q: What about the GI50 [33] of the same compound?
A: 4.27 µM (inactive)

Q: And the GI50 [34]?
A: 1.67 µM (inactive)

Q: What about the GI50 [35] of the same compound?
A: 5.94 µM (inactive)

Q: And the GI50 [36]?
A: 2.84 µM (inactive)

Q: What about the GI50 [37] of the same compound?
A: 0.55 µM (active)

Q: And the GI50 [38]?
A: 2.38 µM (inactive)

Q: What about the GI50 [39] of the same compound?
A: 4.61 µM (inactive)

Q: What about the GI50 [40] of the same compound?
A: 10 µM (inactive)

Q: And the GI50 [41]?
A: 4.91 µM (inactive)

Q: And the GI50 [42]?
A: 10.4 µM (inactive)

Q: And the GI50 [43]?
A: 6.49 µM (inactive)

Q: And the GI50 [44]?
A: 6.31 µM (inactive)

Q: What about the GI50 [45] of the same compound?
A: 1.72 µM (inactive)

Q: And the GI50 [46]?
A: 4.55 µM (inactive)

Q: How did the GI50 [1] turn out when `O=[N+]([O-])c1nccn1CC(O)c1ccc(F)cc1` (stereo not given) was run?
A: > 100 µM (inactive)

Q: And the GI50 [47]?
A: > 100 µM (inactive)

Q: And the GI50 [2]?
A: > 100 µM

Q: And the GI50 [48]?
A: > 100 µM (inactive)

Q: What about the GI50 [49] of the same compound?
A: > 100 µM (inactive)

Q: What about the GI50 [5] of the same compound?
A: > 100 µM (inactive)

Q: What about the GI50 [50] of the same compound?
A: > 100 µM (inactive)

Q: What about the GI50 [6] of the same compound?
A: > 100 µM (inactive)

Q: And the GI50 [7]?
A: > 100 µM (inactive)

Q: What about the GI50 [8] of the same compound?
A: > 100 µM (inactive)

Q: What about the GI50 [9] of the same compound?
A: > 100 µM (inactive)

Q: And the GI50 [51]?
A: > 100 µM (inactive)

Q: And the GI50 [10]?
A: > 100 µM (inactive)

Q: What about the GI50 [11] of the same compound?
A: > 100 µM (inactive)

Q: What about the GI50 [12] of the same compound?
A: > 100 µM (inactive)

Q: What about the GI50 [13] of the same compound?
A: > 100 µM (inactive)

Q: And the GI50 [14]?
A: > 100 µM (inactive)

Q: What about the GI50 [15] of the same compound?
A: > 100 µM (inactive)

Q: And the GI50 [16]?
A: > 100 µM (inactive)

Q: And the GI50 [17]?
A: > 100 µM (inactive)

Q: And the GI50 [18]?
A: > 100 µM (inactive)

Q: And the GI50 [19]?
A: > 100 µM (inactive)

Q: And the GI50 [20]?
A: > 100 µM (inactive)

Q: What about the GI50 [21] of the same compound?
A: > 100 µM (inactive)

Q: What about the GI50 [22] of the same compound?
A: > 100 µM (inactive)

Q: What about the GI50 [23] of the same compound?
A: > 100 µM (inactive)

Q: And the GI50 [24]?
A: > 100 µM (inactive)

Q: And the GI50 [52]?
A: > 100 µM (inactive)

Q: What about the GI50 [25] of the same compound?
A: > 100 µM (inactive)

Q: And the GI50 [26]?
A: > 100 µM (inactive)

Q: And the GI50 [27]?
A: > 100 µM (inactive)

Q: What about the GI50 [28] of the same compound?
A: > 100 µM (inactive)

Q: And the GI50 [29]?
A: > 100 µM (inactive)

Q: What about the GI50 [30] of the same compound?
A: > 100 µM (inactive)

Q: And the GI50 [31]?
A: > 100 µM (inactive)

Q: What about the GI50 [32] of the same compound?
A: > 100 µM (inactive)

Q: And the GI50 [33]?
A: > 100 µM (inactive)

Q: And the GI50 [34]?
A: > 100 µM (inactive)

Q: What about the GI50 [35] of the same compound?
A: > 100 µM (inactive)

Q: And the GI50 [36]?
A: > 100 µM (inactive)

Q: And the GI50 [37]?
A: > 100 µM (inactive)

Q: What about the GI50 [53] of the same compound?
A: > 100 µM (inactive)

Q: What about the GI50 [54] of the same compound?
A: > 100 µM (inactive)

Q: And the GI50 [38]?
A: > 100 µM (inactive)

Q: And the GI50 [39]?
A: > 100 µM (inactive)

Q: And the GI50 [40]?
A: > 100 µM (inactive)

Q: What about the GI50 [55] of the same compound?
A: > 100 µM (inactive)

Q: What about the GI50 [41] of the same compound?
A: > 100 µM (inactive)

Q: What about the GI50 [42] of the same compound?
A: > 100 µM (inactive)

Q: What about the GI50 [43] of the same compound?
A: > 100 µM (inactive)

Q: What about the GI50 [44] of the same compound?
A: > 100 µM (inactive)

Q: What about the GI50 [45] of the same compound?
A: > 100 µM (inactive)

Q: And the GI50 [56]?
A: > 100 µM (inactive)

Q: What about the GI50 [46] of the same compound?
A: > 100 µM (inactive)
